In patent publication US20250188082A1, “Use of Hypoxanthine Compound In Preparation of Drug For Treating Pulmonary Fibrosis” (Sichuan Yiasuo Pharmaceutical Technology Co., Ltd., priority 2022, published 2025):

Legend:
Format in all cases: in vivo, C57BL/6 mice
[1] = system: Streptococcus pneumoniae-induced pulmonary fibrosis model; assay: Streptococcus pneumoniae-induced pulmonary fibrosis model; conditions: for Leucocyte / Lymphocyte / Neutrophil / Ashcroft scores: Streptococcus pneumoniae + bleomycin, 120 mg/kg/d intragastric, 14 days; for Leucocyte / Lymphocyte / Neutrophil: blood, Day 15, 3 times every day, from one week after model; for Ashcroft scores: lung tissue HE staining
[2] = system: bleomycin-induced pulmonary fibrosis model; assay: Comparison with comparative drugs: bleomycin-induced model, hydroxyproline and TGF-β; conditions: 120 mg/kg/d intragastric, twice every day, 14 days, from two weeks after model; Day 15
[3] = system: influenza A virus-induced pulmonary fibrosis model (FM1 strain of influenza A (H1N1) virus); assay: Influenza A virus-induced pulmonary fibrosis model; conditions: 120 mg/kg/d intragastric, 14 days; for Ashcroft scores: influenza A virus + bleomycin, lung tissue HE; for IL-1β / IL-6 / NF-κB / TNF-α: serum, influenza A (H1N1) FM1 + bleomycin, from two weeks after model
From the text: Experimental method: an in-vivo influenza A virus-induced pulmonary fibrosis model was established: C57BL/6 mice (with weights being 22-25 g) were randomly and evenly divided into a plurality of groups, including blank control group, model group, Nintedanib positive control group, hypoxanthine analogue A group, hypoxanthine analogue B group, hypoxanthine analogue C group, compound 1 group, compound 2 group . . . compound 12 group, with 9 mice in each group. On Day 1, the mice in blank control group were instilled with normal saline nasally, and the mice in other groups were all infected with a FM1 strain of an influenza A (H1N1) virus 30 (μL) through nasal instillation. On Day 2, the mice received 5 mg/kg bleomycin through tracheas to induce their pulmonary fibrosis. After the model was established for two weeks, the mice in each group were intragastrically administrated for intervention for consecutive 14 days; the mice in blank control group and model group intragastrically received the same dosage of the normal saline as those in drug groups; the mice in Nintedanib positive control group received Nintedanib (120 mg/kg); the mice in hypoxanthine analogue A group, hypoxanthine analogue B group and hypoxanthine analogue C group respectively received hypoxanthine analogue A (120 mg/kg/d), hypoxanthine analogue B (120 mg/kg/d) and hypoxanthine analogue C (120 mg/kg/d); and the mice in compound 1 group, compound 2 group . . . compound 12 group respectively received compound 1 (120 mg/kg/d), compound 2 (120 mg/kg/d) . . . compound 12 (120 mg/kg/d) prepared in example 1. After administration for consecutive 14 days, the mice were observed every day, and their weights and death conditions were recorded. After administration, blood was taken from eyeballs for immediately detecting the expression levels of NF-κB, TNF-α, IL-1 and IL-6 in serum, and lung tissues were taken for HE detection and Ashcroft scoring.

[4] = system: influenza B virus-induced pulmonary fibrosis model (influenza B (H7N9) virus); conditions: 120 mg/kg/d intragastric, 14 days; for Ashcroft scores: influenza B virus + bleomycin, lung tissue HE; for IL-1β / NF-κB / TNF-α / IL-6: serum, from two weeks after model; for IL-1β / NF-κB / TNF-α: influenza B (H7N9) + bleomycin; for IL-6: influenza B + bleomycin
[5] = system: novel coronavirus-induced pulmonary fibrosis model (COVID-19 novel coronavirus strains); assay: Novel coronavirus-induced pulmonary fibrosis model; conditions: 120 mg/kg/d intragastric, 14 days; for Ashcroft scores: novel coronavirus + bleomycin, lung tissue HE; for IL-1β / IL-6 / NF-κB / TNF-α: serum, COVID-19 novel coronavirus + bleomycin, from two weeks after model
From the text: Experimental method: an in-vivo novel coronavirus-induced pulmonary fibrosis model was established: C57BL/6 mice (with weights being 22-25 g) were randomly and evenly divided into a plurality of groups, including blank control group, model group, Nintedanib positive control group, hypoxanthine analogue A group, hypoxanthine analogue B group, hypoxanthine analogue C group, compound 1 group, a compound 2 group . . . compound 12 group, with 9 mice in each group. On Day 1, the mice in blank control group were instilled with normal saline nasally, and the mice in other groups were all infected with COVID-19 novel coronavirus strains (30 μL) through nasal instillation. On Day 2, the mice received 5 mg/kg bleomycin through tracheas to induce their pulmonary fibrosis. After the model was established for two weeks, the mice in each group were intragastrically administrated for intervention for consecutive 14 days; the mice in blank control group and model group intragastrically received the same dosage of normal saline as those in drug groups; the mice in Nintedanib positive control group received Nintedanib (120 mg/kg); the mice in hypoxanthine analogue A group, hypoxanthine analogue B group and hypoxanthine analogue C group respectively received hypoxanthine analogue A (120 mg/kg/d), hypoxanthine analogue B (120 mg/kg/d) and hypoxanthine analogue C (120 mg/kg/d); and the mice in compound 1 group, compound 2 group . . . compound 12 group respectively received compound 1 (120 mg/kg/d), compound 2 (120 mg/kg/d) . . . compound 12 (120 mg/kg/d) prepared in example 1. After administration for consecutive 14 days, the mice were observed every day, and their weights and death conditions were recorded. After administration, blood was taken from eyeballs for immediately detecting the expression levels of NF-κB, TNF-α, IL-1 and IL-6 in serum, and lung tissues were taken for HE detection and Ashcroft scoring.

[6] = system: bleomycin-induced pulmonary fibrosis model; assay: Early pulmonary fibrosis: bleomycin-induced model, dosing from one week after modelling; conditions: for Leucocyte / Lymphocyte / Neutrophil / Ashcroft scores: early pulmonary fibrosis, 120 mg/kg/d intragastric, 14 days, from one week after model; for Leucocyte / Lymphocyte / Neutrophil: blood, Day 15, twice every day; for Ashcroft scores: lung tissue HE staining

Row | SMILES | Leucocyte [1] | Lymphocyte [1] | Neutrophil [1] | Ashcroft scores [1] | Hydroxyproline in bronchoalveolar lavage fluids [2] [µg/mg] | Hydroxyproline in lung tissues [2] [µg/mg] | TGF-β in bronchoalveolar lavage fluids [2] [µg/L] | TGF-β in lung tissues [2] [µg/L] | IL-1β [3] [pg/mL] | IL-6 [3] [pg/mL] | NF-κB [3] [pg/mL] | TNF-α [3] [pg/mL] | Ashcroft scores [4] | IL-1β [4] [pg/mL] | NF-κB [4] [pg/mL] | TNF-α [4] [pg/mL] | IL-6 [4] [pg/mL] | Ashcroft scores [5] | IL-1β [5] [pg/mL] | IL-6 [5] [pg/mL] | further results
1 | CC(C)Oc1ncnc2[nH]cnc12 [Compound 1] | 5.52 10^9/L | 5.99 10^9/L | 2.00 10^9/L | 1.20 | 0.75 ± 0.04 | 1.45 ± 0.09 | 4.05 ± 0.15 | 24.15 ± 1.21 | 28.8 | 63.9 | 26.5 | 87.1 | 1.19 | 26.3 | 30.5 | 72.9 | 65.1 | 1.08 | 36.4 | 68.3 | Ashcroft scores [3]: 1.21; NF-κB [5]: 26.6 pg/mL; TNF-α [5]: 63.3 pg/mL; Leucocyte [6]: 4.15 10^9/L; Lymphocyte [6]: 5.42 10^9/L; Neutrophil [6]: 1.11 10^9/L; Ashcroft scores [6]: 0.99
2 | CC(C)n1cnc2nc[nH]c(=O)c21 [Compound 6] | 5.91 10^9/L | 7.55 10^9/L | 1.88 10^9/L | 1.27 | 0.68 ± 0.07 | 1.46 ± 0.07 | 3.91 ± 0.18 | 24.18 ± 2.14 | 28.5 | 66.1 | 27.8 | 90.3 | 1.14 | 27.2 | 32.4 | 75.3 | 65.6 | 1.34 | 38.7 | 67.1 | Ashcroft scores [3]: 1.26; NF-κB [5]: 21.2 pg/mL; TNF-α [5]: 68.3 pg/mL; Leucocyte [6]: 4.25 10^9/L; Lymphocyte [6]: 5.49 10^9/L; Neutrophil [6]: 1.19 10^9/L; Ashcroft scores [6]: 1.08
3 | CC(C)Oc1ncnc2c1ncn2C(C)C [Compound 3] | 5.62 10^9/L | 5.77 10^9/L | 1.60 10^9/L | 1.01 | 0.70 ± 0.05 | 1.31 ± 0.07 | 3.95 ± 0.19 | 24.15 ± 2.04 | 26.3 | 62.9 | 24.3 | 86.1 | 0.98 | 25.8 | 28.8 | 71.8 | 64.1 | 1.19 | 36.3 | 65.3 | Ashcroft scores [3]: 1.18; NF-κB [5]: 24.7 pg/mL; TNF-α [5]: 63.5 pg/mL; Leucocyte [6]: 4.01 10^9/L; Lymphocyte [6]: 4.99 10^9/L; Neutrophil [6]: 0.96 10^9/L; Ashcroft scores [6]: 0.92
4 | CC(C)Oc1ncnc2nc[nH]c12 [Compound 5] | 6.75 10^9/L | 7.64 10^9/L | 1.82 10^9/L | 1.25 | 0.69 ± 0.09 | 1.43 ± 0.07 | 3.93 ± 0.18 | 24.18 ± 1.65 | 28.1 | 65.6 | 27.7 | 90.2 | 1.18 | 28.1 | 31.4 | 76.6 | 66.9 | 1.11 | 37.5 | 66.4 | NF-κB [5]: 24.3 pg/mL; TNF-α [5]: 66.1 pg/mL; Leucocyte [6]: 4.23 10^9/L; Lymphocyte [6]: 5.60 10^9/L; Neutrophil [6]: 1.26 10^9/L; Ashcroft scores [6]: 1.22
5 | CC(C)Oc1ncnc2c1ncn2C [Hypoxanthine analogue B, reference compound] | 156.11 10^9/L | 91.01 10^9/L | 89.86 10^9/L | 6.14 | 1.81 ± 0.14 | 2.97 ± 0.19 | 8.95 ± 0.68 | 91.53 ± 9.56 | 329.7 | 422.7 | 771.9 | 341.6 | 6.21 | 240.6 | 627.1 | 190.2 | 193.1 | 6.38 | 491.8 | 552.3 | inhibition (anti-inflammatory) effect on leucocytes, neutrophils and lymphocytes in blood ([1]; mice with Streptococcus pneumoniae-induced pulmonary fibrosis, result in words): obviously inferior; Ashcroft scores [3]: 6.07; NF-κB [5]: 741.1 pg/mL; TNF-α [5]: 401.9 pg/mL; Leucocyte [6]: 49.97 10^9/L; Neutrophil [6]: 36.88 10^9/L; Ashcroft scores [6]: 5.39; inhibition (anti-inflammatory) effect on leucocytes, neutrophils and lymphocytes in blood ([6]; mice with early pulmonary fibrosis, result in words): obviously inferior
